# Measurements taken from ChEMBL document CHEMBL1136346, “Synthesis of linked carbohydrates and evaluation of their binding for 16S RNA by mass spectrometry” (Bioorg Med Chem Lett, 2003).
# pKd: −log10 of the molar value.
# Test: Binding affinity against bacterial 16S rRNA using mass spectrometry based assay
# Design: species or system Escherichia coli
row,pKd,SMILES
1,3.98,N[C@@H]1C[C@H](N)[C@@H](OC(=O)CCCC(=O)O[C@H]2[C@H](O)[C@@H](O)[C@H](N)C[C@@H]2N)[C@H](O)[C@H]1O
2,2.80,C=CCO[C@H]1O[C@H](CO)[C@@H](O)[C@H](O)[C@H]1N
3,3.47,CN(CCN(C)CC(O)CO[C@H]1[C@H](O)[C@@H](O)[C@H](N)C[C@@H]1N)CC(O)CO[C@H]1O[C@H](CO)[C@@H](O)[C@H](O)[C@H]1N (stereo partly drawn)
4,4.35,CN(CCCCN(C)CC(O)CO[C@H]1O[C@H](CO)[C@@H](O)[C@H](O)[C@H]1N)CC(O)CO[C@@H]1O[C@H](CO)[C@@H](O)[C@H](O)[C@H]1N (stereo partly drawn)
5,4.28,CN(CCCCCCN(C)CC(O)CO[C@H]1O[C@H](CO)[C@@H](O)[C@H](O)[C@H]1N)CC(O)CO[C@@H]1O[C@H](CO)[C@@H](O)[C@H](O)[C@H]1N (stereo partly drawn)
6,4.70,CN(CCN(C)CC(O)CO[C@H]1O[C@H](CN)[C@@H](O)[C@H](O)[C@H]1N)CC(O)CO[C@@H]1O[C@H](CN)[C@@H](O)[C@H](O)[C@H]1N (stereo partly drawn)
7,4.27,CN(CCCCN(C)CC(O)CO[C@H]1[C@H](O)[C@@H](O)[C@H](N)C[C@@H]1N)CC(O)CO[C@H]1O[C@H](CO)[C@@H](O)[C@H](O)[C@H]1N (stereo partly drawn)
8,4.80,CN(CCCCN(C)CC(O)CO[C@H]1[C@H](O)[C@@H](O)[C@H](N)C[C@@H]1N)CC(O)CO[C@H]1[C@H](O)[C@@H](O)[C@H](N)C[C@@H]1N (stereo partly drawn)

# Second part, the compound before the results:
row,SMILES,pKd
1,CN(CCCCN(C)CC(O)CO[C@H]1O[C@H](CN)[C@@H](O)[C@H](O)[C@H]1N)CC(O)CO[C@@H]1O[C@H](CN)[C@@H](O)[C@H](O)[C@H]1N (stereo partly drawn),4.80
2,NC[C@H]1O[C@H](OCC(O)CN2CCN(CC(O)CO[C@H]3O[C@H](CN)[C@@H](O)[C@H](O)[C@H]3N)CC2)[C@H](N)[C@@H](O)[C@@H]1O (stereo partly drawn),4.49
3,CN(CCCCCCN(C)CC(O)CO[C@H]1[C@H](O)[C@@H](O)[C@H](N)C[C@@H]1N)CC(O)CO[C@H]1O[C@H](CO)[C@@H](O)[C@H](O)[C@H]1N (stereo partly drawn),4.41
4,N[C@@H]1C[C@H](N)[C@@H](O)[C@H](O)[C@H]1O,3.89
5,CN(CCCCCCN(C)CC(O)CO[C@H]1[C@H](O)[C@@H](O)[C@H](N)C[C@@H]1N)CC(O)CO[C@H]1O[C@H](CN)[C@@H](O)[C@H](O)[C@H]1N (stereo partly drawn),4.49
6,C=CCO[C@H]1O[C@H](CN)C(O)[C@H](O)[C@H]1N (stereo partly drawn),3.49
7,CN(CCCCCCN(C)CC(O)CO[C@H]1[C@H](O)[C@@H](O)[C@H](N)C[C@@H]1N)CC(O)CO[C@H]1[C@H](O)[C@@H](O)[C@H](N)C[C@@H]1N (stereo partly drawn),4.68
8,CN(CCCCCCN(C)CC(O)CO[C@H]1O[C@H](CN)[C@@H](O)[C@H](O)[C@H]1N)CC(O)CO[C@@H]1O[C@H](CN)[C@@H](O)[C@H](O)[C@H]1N (stereo partly drawn),4.96
9,CN(CCCCN(C)CC(O)CO[C@@H]1[C@@H](O)[C@H](N)C[C@H](N)[C@H]1O)CC(O)CO[C@H]1O[C@H](CO)[C@@H](O)[C@H](O)[C@H]1N (stereo partly drawn),4.54
10,CN(CCCCN(C)CC(O)CO[C@@H]1[C@@H](O)[C@H](N)C[C@H](N)[C@H]1O)CC(O)CO[C@H]1O[C@H](CN)[C@@H](O)[C@H](O)[C@H]1N (stereo partly drawn),4.60
11,CN(CCN(C)CC(O)CO[C@H]1O[C@H](CO)[C@@H](O)[C@H](O)[C@H]1N)CC(O)CO[C@@H]1O[C@H](CO)[C@@H](O)[C@H](O)[C@H]1N (stereo partly drawn),3.84
12,CN(CCCCN(C)CC(O)CO[C@H]1[C@H](O)[C@@H](O)[C@H](N)C[C@@H]1N)CC(O)CO[C@H]1O[C@H](CN)[C@@H](O)[C@H](O)[C@H]1N (stereo partly drawn),4.89
13,N[C@@H]1C[C@H](N)[C@@H](O)[C@H](OCC(O)CNCCCCNCC(O)CO[C@@H]2[C@@H](O)[C@H](N)C[C@H](N)[C@H]2O)[C@H]1O (stereo partly drawn),4.02
14,CN(CCN(C)CC(O)CO[C@H]1[C@H](O)[C@@H](O)[C@H](N)C[C@@H]1N)CC(O)CO[C@H]1[C@H](O)[C@@H](O)[C@H](N)C[C@@H]1N (stereo partly drawn),4.24
15,CN(CCN(C)CC(O)CO[C@H]1[C@H](O)[C@@H](O)[C@H](N)C[C@@H]1N)CC(O)CO[C@H]1O[C@H](CN)[C@@H](O)[C@H](O)[C@H]1N (stereo partly drawn),4.33
